The conditions of the series: 101.33 kPa, Liquid, Vibrating tube method.

Here are results for 4 compounds from the NIST ThermoML archive (doi:10.1016/j.fluid.2018.01.026).

Each structure is given as a SMILES string. Numbers after ± are expanded uncertainties.

For the compound `CCCOC(C)=O` [propyl ethanoate], the mass density was 887.8 ± 1 kg/m3 (293.15 K); 882.19 ± 1 kg/m3 (298.15 K); 876.56 ± 1 kg/m3 (303.15 K); 870.9 ± 1 kg/m3 (308.15 K); 865.21 ± 1 kg/m3 (313.15 K).

Take `CCCCOC(C)=O` [butyl ethanoate]: the mass density runs as follows: (293.15 K) 880.61 ± 1 kg/m3; (298.15 K) 875.45 ± 1 kg/m3; (303.15 K) 870.27 ± 1 kg/m3; (308.15 K) 865.08 ± 1 kg/m3; (313.15 K) 859.86 ± 1 kg/m3.

On to `CCOC(C)=O` [ethyl acetate], for which the mass density was 900.48 ± 1 kg/m3 (293.15 K); 894.36 ± 1 kg/m3 (298.15 K); 888.19 ± 1 kg/m3 (303.15 K); 881.98 ± 1 kg/m3 (308.15 K); 875.73 ± 1 kg/m3 (313.15 K).

With `CC(=O)CO` [acetol], the mass density worked out at 1080.13 ± 6.3 kg/m3 (293.15 K); 1074.92 ± 6.3 kg/m3 (298.15 K); 1069.67 ± 6.2 kg/m3 (303.15 K); 1064.31 ± 6.1 kg/m3 (308.15 K); 1058.71 ± 6.1 kg/m3 (313.15 K); 1053.13 ± 6 kg/m3 (318.15 K). For the same compound, the mass density (323.15 K) amounted to 1047.55 ± 5.9 kg/m3, the mass density (328.15 K) was 1042.01 ± 5.9 kg/m3 and the mass density (333.15 K) worked out at 1036.62 ± 5.8 kg/m3.
